Data set [1] concerns the target T1, Relaxin-3 receptor 1 (Homo sapiens, UniProt Q9NSD7).
T1 sequence (Q9NSD7 whole entry): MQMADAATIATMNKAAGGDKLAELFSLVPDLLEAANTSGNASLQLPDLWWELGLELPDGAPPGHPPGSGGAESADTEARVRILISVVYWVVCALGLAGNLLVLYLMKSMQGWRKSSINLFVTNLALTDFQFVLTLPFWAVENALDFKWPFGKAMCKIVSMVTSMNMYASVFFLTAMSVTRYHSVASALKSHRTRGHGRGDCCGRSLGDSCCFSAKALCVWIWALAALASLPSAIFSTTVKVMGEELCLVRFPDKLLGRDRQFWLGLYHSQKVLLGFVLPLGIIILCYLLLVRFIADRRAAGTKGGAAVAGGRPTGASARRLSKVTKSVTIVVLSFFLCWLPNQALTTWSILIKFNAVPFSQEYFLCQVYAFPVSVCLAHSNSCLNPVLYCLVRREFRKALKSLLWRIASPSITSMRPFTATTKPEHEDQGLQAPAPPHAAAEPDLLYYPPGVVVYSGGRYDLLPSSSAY
As to the kind of experiment: Negative allosteric modulation of human RXFP3 receptor expressed in CHO-K1 cell membrane assessed as inhibition of relaxin-3-induced stimulation of [35S]GTPgammaS binding followed by relaxin-3 addition and measured after 1 hr. It counts as functional, cell membranes.

Data set [2] can be described thus: Kinetic solubility of compound in PBS at pH 7.4 incubated under agitation for 2 hrs by LC-MS/MS analysis. Type of data set: physicochemical.
A short description of data set [3]: Metabolic stability in rat liver microsomes assessed as clearance measured up to 45 mins by LC-MS/MS analysis. It counts as ADME, Microsome. As to conditions: 0.75 h; call rule not given here.
Data set [4] can be described thus: Metabolic stability in rat liver microsomes assessed as half life measured up to 45 mins by LC-MS/MS analysis. It counts as ADME, Microsome.
Data set [5] addresses T1, Relaxin-3 receptor 1. The data set can be described thus: Negative allosteric modulation of human RXFP3 receptor expressed in CHO-K1 cells assessed as cAMP accumulation incubated for 30 mins in presence of forskolin by TR-FRET assay. It counts as functional, cell-based.
The nature of data set [6]: Apparent permeability compound across apical to basolateral side in MDCK-MDR1 cells at 10 uM incubated for 30 to 90 mins. Type of data set: ADME, cell-based, Canis lupus familiaris. The settings on record: dog.
Data set [7] in a line: Efflux ratio of apparent permeability across basolateral to apical over apical to basolateral side in MDCK-MDR1 cells at 10 uM incubated for 30 to 90 mins. It counts as ADME, cell-based, Canis lupus familiaris. The settings on record: dog, time 30-90 min.
Data set [8] is described as follows: Apparent permeability of compound across basolateral to apical side in MDCK-MDR1 cells at 10 uM incubated for 30 to 90 mins. It counts as ADME, cell-based, Canis lupus familiaris. The settings on record: dog.
The target in another data set is T2, Relaxin receptor 1 (Homo sapiens, UniProt Q9HBX9).
T2 sequence (Q9HBX9 whole entry): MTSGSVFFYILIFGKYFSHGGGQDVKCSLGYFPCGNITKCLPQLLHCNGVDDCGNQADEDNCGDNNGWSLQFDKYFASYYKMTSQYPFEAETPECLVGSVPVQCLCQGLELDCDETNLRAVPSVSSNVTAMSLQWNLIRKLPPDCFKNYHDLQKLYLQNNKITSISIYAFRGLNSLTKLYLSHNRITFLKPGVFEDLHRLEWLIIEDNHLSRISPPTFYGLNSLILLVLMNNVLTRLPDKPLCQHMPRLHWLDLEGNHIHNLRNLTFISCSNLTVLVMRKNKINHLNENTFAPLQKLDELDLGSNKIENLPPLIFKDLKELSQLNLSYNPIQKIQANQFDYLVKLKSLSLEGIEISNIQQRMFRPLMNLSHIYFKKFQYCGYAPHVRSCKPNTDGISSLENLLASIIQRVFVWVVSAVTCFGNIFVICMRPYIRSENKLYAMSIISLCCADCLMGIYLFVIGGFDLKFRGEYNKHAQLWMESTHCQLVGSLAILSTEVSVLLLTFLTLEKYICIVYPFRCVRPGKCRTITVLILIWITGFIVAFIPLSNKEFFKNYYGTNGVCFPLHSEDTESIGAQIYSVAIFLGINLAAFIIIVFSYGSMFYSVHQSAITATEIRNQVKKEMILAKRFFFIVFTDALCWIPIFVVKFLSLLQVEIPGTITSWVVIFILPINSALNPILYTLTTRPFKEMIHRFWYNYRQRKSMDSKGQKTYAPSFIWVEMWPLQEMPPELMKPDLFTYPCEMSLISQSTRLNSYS
The data set can be described thus: Negative allosteric modulation of human RXFP1 receptor expressed in CHO-K1 cells assessed as cAMP accumulation incubated for 30 mins by TR-FRET assay. Type of data set: functional, cell-based.

A further data set deals with Relaxin-3 receptor 2 (Homo sapiens, UniProt Q8TDU9). As to the kind of experiment: Negative allosteric modulation of human RXFP4 receptor expressed in CHO-K1 cells assessed as cAMP accumulation incubated for 30 mins by TR-FRET assay. It counts as functional, cell-based.
Relaxin-3 receptor 2, sequence (Q8TDU9 whole entry): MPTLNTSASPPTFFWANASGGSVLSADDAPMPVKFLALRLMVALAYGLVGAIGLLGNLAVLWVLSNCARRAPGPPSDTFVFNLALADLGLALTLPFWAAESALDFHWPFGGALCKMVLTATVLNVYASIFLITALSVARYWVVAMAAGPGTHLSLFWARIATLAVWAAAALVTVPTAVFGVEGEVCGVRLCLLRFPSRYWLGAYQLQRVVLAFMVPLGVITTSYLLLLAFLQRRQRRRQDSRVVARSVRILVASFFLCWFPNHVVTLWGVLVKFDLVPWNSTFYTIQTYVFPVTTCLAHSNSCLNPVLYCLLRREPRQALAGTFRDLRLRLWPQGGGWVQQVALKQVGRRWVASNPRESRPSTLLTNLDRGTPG
Data set [9] can be described thus: AUClast in male Wistar rat plasma at 10 mg/kg, ip administrated as single dose and measured 24 hrs post dose by LC-MS/MS analysis. Type of data set: ADME, organism-based.
A short description of data set [10]: Brain concentration in male Wistar rat at 10 mg/kg, ip measured after 24 hrs. The settings on record: in vivo. Type of data set: ADME, organism-based.
A short description of data set [11]: Tmax in male Wistar rat plasma at 10 mg/kg, ip administrated as single dose and measured 24 hrs post dose by LC-MS/MS analysis. As to conditions: in vivo. Type of data set: ADME, organism-based.
Data set [12] is described as follows: Cmax in female Wistar rat plasma at 10 mg/kg, ip administrated as single dose and measured 24 hrs post dose by LC-MS/MS analysis. The settings on record: in vivo. Type of data set: ADME, organism-based.
Data set [13] can be described thus: Tmax in female Wistar rat brain at 10 mg/kg, ip measured 24 hrs post dose by LC-MS/MS analysis. Type of data set: ADME, organism-based. The settings on record: in vivo.
Data set [14] can be described thus: Half life in female Wistar rat plasma at 10 mg/kg, ip administrated as single dose and measured 24 hrs post dose by LC-MS/MS analysis. It counts as ADME, organism-based. As to conditions: in vivo.
A short description of data set [15]: Tmax in male Wistar rat brain at 10 mg/kg, ip measured 24 hrs post dose by LC-MS/MS analysis. Type of data set: ADME, organism-based. The settings on record: in vivo.
Data set [16] in a line: Plasma protein binding in Wistar rat at 1 uM incubated for 6 hrs by LC-MS/MS analysis. Type of data set: ADME, cell-free.
Data set [17] in a line: Brain concentration in female Wistar rat at 10 mg/kg, ip measured after 24 hrs. It counts as ADME, organism-based. As to conditions: in vivo.
A short description of data set [18]: Cmax in male Wistar rat brain at 10 mg/kg, ip measured 24 hrs post dose by LC-MS/MS analysis. It counts as ADME, organism-based.
Data set [19] is described as follows: AUClast in female Wistar rat plasma at 10 mg/kg, ip administrated as single dose and measured 24 hrs post dose by LC-MS/MS analysis. Type of data set: ADME, organism-based.
Data set [20] is described as follows: AUClast in female Wistar rat brain at 10 mg/kg, ip measured 24 hrs post dose by LC-MS/MS analysis. Type of data set: ADME, organism-based.
Data set [21] can be described thus: Clearance in male Wistar rat plasma at 10 mg/kg, ip administrated as single dose and measured 24 hrs post dose by LC-MS/MS analysis. It counts as ADME, organism-based.
Data set [22] can be described thus: Half life in male Wistar rat plasma at 10 mg/kg, ip administrated as single dose and measured 24 hrs post dose by LC-MS/MS analysis. As to conditions: in vivo. Type of data set: ADME, organism-based.
The nature of data set [23]: Clearance in female Wistar rat plasma at 10 mg/kg, ip administrated as single dose and measured 24 hrs post dose by LC-MS/MS analysis. Type of data set: ADME, organism-based.
Data set [24] can be described thus: Cmax in male Wistar rat plasma at 10 mg/kg, ip administrated as single dose and measured 24 hrs post dose by LC-MS/MS analysis. Type of data set: ADME, organism-based. As to conditions: in vivo.
A short description of data set [25]: AUClast in male Wistar rat brain at 10 mg/kg, ip measured 24 hrs post dose by LC-MS/MS analysis. Type of data set: ADME, organism-based.
Data set [26] is described as follows: Cmax in female Wistar rat brain at 10 mg/kg, ip measured 24 hrs post dose by LC-MS/MS analysis. Type of data set: ADME, organism-based.
Data set [27] in a line: Tmax in female Wistar rat plasma at 10 mg/kg, ip administrated as single dose and measured 24 hrs post dose by LC-MS/MS analysis. Type of data set: ADME, organism-based. As to conditions: in vivo.
Where [28] appears, read: mdck-mdr1, 10 µM, time 30-90 min.

Structures are written as SMILES. Some results are limits rather than exact numbers.

Regarding `O=C(Nc1ccc(-c2nc(-c3ccc(Cl)cc3)no2)cc1)C1CC(=O)N(Cc2cccnc2)C1` (stereo not given), the IC50 on Relaxin-3 receptor 1 [1] amounted to 2.63 µM.
Consider `O=C(Nc1ccc(-c2nc(-c3ccc(Cl)cc3)no2)cc1)C1CC(=O)N(Cc2ccco2)C1` (stereo not given), for which the solubility kinetic at 2 h in [2] (PBS, pH 7.4, read-out: Kinetic_solubility) is less than 1 µM. The CLH in [3] turned out to be 132 µL/min/mg. Besides, the half-life in [4] (liver microsomes) amounted to 0.177 h. For the same molecule, the IC50 at Relaxin-3 receptor 1 [5] (cho-k1) was found to be 2.36 µM; on Relaxin-3 receptor 1 [1], 3.02 µM. In data set [6] (MDCK-MDR1, time 30-90 min), the Papp A→B at 10 µM worked out at 1.3 ×10⁻⁶ cm/s. The efflux ratio at 10 µM in data set [7] was 1. In data set [8] (MDCK-MDR1, time 30-90 min), the basolateral-to-apical permeability (Papp B→A) at 10 µM was 1.3 ×10⁻⁶ cm/s.
With `CNCC(=O)Nc1ccc(-c2nc(-c3ccc(Cl)cc3)no2)cc1`, at Relaxin-3 receptor 1 [1], the IC50 worked out at 2.63 µM.
Consider `O=C(Nc1ccc(-c2nc(-c3ccc(Cl)cc3)no2)cc1)C1CC(=O)N(CC2CCNCC2)C1` (stereo not given), for which, at Relaxin-3 receptor 1 [1], the IC50 turned out to be 0.71 µM.
Turning to `CNCCCN1CC(C(=O)Nc2ccc(-c3nc(-c4ccc(Cl)cc4)no3)cc2)CC1=O` (stereo not given), the IC50 at Relaxin-3 receptor 1 [1] stood at 1.18 µM.
For the molecule `CNCCN1CCC(C(=O)Nc2ccc(-c3nc(-c4ccc(Cl)cc4)no3)cc2)CC1`, the IC50 on Relaxin receptor 1 was greater than 100 µM; at Relaxin-3 receptor 2 it was 14.3 µM.
On to `CNCCCC(=O)Nc1ccc(-c2nc(-c3ccc(Cl)cc3)no2)cc1`, for which the IC50 at Relaxin-3 receptor 1 [1] was 2.09 µM.
For the molecule `CNCCN1CC(C(=O)Nc2ccc(-c3nc(-c4ccc(Cl)cc4)no3)cc2)CC1=O` (stereo not given), the IC50 on Relaxin receptor 1 is greater than 100 µM; at Relaxin-3 receptor 2, 34.3 µM.
Regarding `O=C(Nc1ccc(-c2nc(-c3ccc(Cl)cc3)no2)cc1)[C@@H]1CC(=O)N(C[C@@H]2CCCNC2)C1`, the exposure AUC(0-t) at 24 h was found to be 7370 ng·h/mL in [9], 8130 ng·h/mL in [19], 1930 ng·h/mL in data set [20] and 3270 ng·h/mL in data set [25]. The molecule further came in with a Kinetic_solubility in data set [2] (buffer, pH 7.4, 2 h) of 10.1 µM. The Drug uptake result in data set [10] and in [17] was “Active” each time. For the same molecule, the CLH in data set [3] was 6.8 µL/min/mg. The IC50 at Relaxin receptor 1 and on Relaxin-3 receptor 2 was greater than 100 µM each time. Further, the t1/2 stood at 3.42 h in data set [4] (microsomes, 0.75 h); 10 h in data set [14]; 12 h in data set [22]. Besides, the Tmax in data set [11] came to 0.5 h; in data set [13], 2 h; in [15], 1 h; in data set [27], 0.5 h. Besides, the Cmax in data set [12] stood at 2117 ng/mL; in data set [18] it was 185 ng/mL; in data set [24], 2121 ng/mL; in data set [26], 157 ng/mL. For the same molecule, the results for the Papp in [6] (setting [28]) and in [8] (setting [28]) were 1.1 10^-6 cm/s and 3.1 10^-6 cm/s, respectively. Also, in data set [16], the PPB turned out to be 98%. Also, the CL/F in data set [21] and in data set [23] was 18 mL/min/kg throughout.
Consider `CNCCC(=O)Nc1ccc(-c2nc(-c3ccc(Cl)cc3)no2)cc1`, for which the IC50 on Relaxin receptor 1 stood at 19.6 µM; at Relaxin-3 receptor 1 [5], 0.59 µM; on Relaxin-3 receptor 1 [1], 1.05 µM; on Relaxin-3 receptor 2, 4.87 µM.
On to `NCCN1CC(C(=O)Nc2ccc(-c3nc(-c4ccc(Cl)cc4)no3)cc2)CC1=O` (stereo not given), for which the IC50 on Relaxin-3 receptor 1 [1] worked out at 1.45 µM.
The same measure, in the same setting: with `O=C(Nc1ccc(-c2nc(-c3ccc(Cl)cc3)no2)cc1)C1CC(=O)N(CC2CCCCN2)C1` (racemic) the figure was 0.96 µM; with `O=C(Nc1ccc(-c2nc(-c3ccc(Cl)cc3)no2)cc1)C1CC(=O)N(CC2CCNC2)C1` (racemic), 1.7 µM.

The values above are taken from ChEMBL document CHEMBL6109135, “Development of Diphenyl-1,2,4-Oxadiazole Analogues as Allosteric Modulators of the RXFP3 Receptor: Evaluation of Importance of the N-Substituted-2-Pyrrolidone Moiety in RLX-33” (J Med Chem, 2025).
